Measured values: paper PMC12621202, “RTx-303, an Orally Bioavailable Polθ Polymerase Inhibitor That Potentiates PARP Inhibitors in BRCA Mutant Tumors” (Journal of Medicinal Chemistry, 2025)
Where two headings read alike, the source gives them in different places.

Assays:
[1] = Stability in PBS, simulated gastric fluid and simulated intestinal fluid; assay type: in vitro ADME; settings: for stability in simulated intestinal and gastric fluids, plasma and PBS buffer: statement in words covering all four matrices
Protocol: Stability in PBS, SGF (simulated gastric fluid) and SIF (simulated intestinal fluid) assays. The stability of test compounds was determined in Dulbecco’s PBS (control solution; pH = 7.4; 136.9 mM NaCl; 2.68 mM KCl; 8.1 mM Na2HPO4; 1.47 mM KH2PO4; 0.9 mM CaCl2 and MgCl2, US Pharmacopeia, defined (US Pharmacopoeia 33–28NF; 2010) Simulated Gastric Fluid (SGF; 0.2% NaCl, 84 mM HCl, pH 1.2 with 3.2 mg/mL pepsin from porcine gastric mucosa), or US Pharmacopoeia-defined Simulated Intestinal Fluid (SIF; 50 mM potassium phosphate, pH 6.8; with 10 mg/mL pancreatin from porcine pancreas). Reactions were conducted in 96-well deep-well (1 mL) polypropylene plates in duplicate. 540 μL of prewarmed 1.11× PBS, SGF or SIF was added to wells of the prewarmed plate in the Labnet Vortemp incubator at 37 °C. Reactions were initiated by adding 60 μL of a 50 μM test compound in water (final concentration of 5 μM) to test wells. Samples were mixed and incubated with gentle shaking. At 0, 30, 90, 210 min, 75 μL aliquots were transferred to a stop plate (96-well plate with 300 μL of ACN:water 1:1 with 0.05 μM propafenone) on ice. After all time points, the stop plate was centrifuged 10 min at 2270 × g in a Beckman Coulter Allegra 6R centrifuge and 170 μL of the supernatants were transferred to a Waters Acquity UPLC 700 μL 96-well sample plate and sealed with a cap mat. After centrifugation (10 min; 4000 × g), supernatants were analyzed by LC/MS as described. Standard curves (0–1000 nM) were generated in PBS and plasma. Data were fit to a one-phase decay equation using GraphPad Prism 5.04 to generate T1/2 values.

[2] = target: T1, recombinant human Polθ-pol (Homo sapiens, UniProt O75417); assay: Fluorescent-based IC50 DNA synthesis assay; assay type: biochemical; settings: n=3
T1 construct: purified recombinant human Polθ-pol (comprising amino acid residues 1792–2590); made in house
T1 sequence (O75417 1792-2590): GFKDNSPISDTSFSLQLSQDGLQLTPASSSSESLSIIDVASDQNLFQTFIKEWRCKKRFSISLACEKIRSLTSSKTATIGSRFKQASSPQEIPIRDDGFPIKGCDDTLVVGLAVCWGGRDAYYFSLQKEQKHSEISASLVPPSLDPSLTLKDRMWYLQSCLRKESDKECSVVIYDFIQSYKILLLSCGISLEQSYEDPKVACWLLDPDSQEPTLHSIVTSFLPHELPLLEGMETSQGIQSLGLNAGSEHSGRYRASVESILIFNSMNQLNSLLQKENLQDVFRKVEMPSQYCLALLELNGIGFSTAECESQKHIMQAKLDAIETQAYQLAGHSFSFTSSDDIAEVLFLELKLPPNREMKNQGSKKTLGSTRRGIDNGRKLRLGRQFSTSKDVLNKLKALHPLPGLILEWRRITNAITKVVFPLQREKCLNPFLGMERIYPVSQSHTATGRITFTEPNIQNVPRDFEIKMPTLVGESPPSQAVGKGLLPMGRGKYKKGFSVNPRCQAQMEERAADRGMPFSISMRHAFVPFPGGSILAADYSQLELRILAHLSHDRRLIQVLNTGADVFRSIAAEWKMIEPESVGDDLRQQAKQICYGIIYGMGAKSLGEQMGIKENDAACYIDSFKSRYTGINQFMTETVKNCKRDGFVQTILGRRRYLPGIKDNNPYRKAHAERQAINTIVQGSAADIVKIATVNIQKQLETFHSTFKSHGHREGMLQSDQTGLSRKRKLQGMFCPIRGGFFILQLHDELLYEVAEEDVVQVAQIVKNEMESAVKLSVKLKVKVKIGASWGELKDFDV
Protocol: The biochemical Polθ-pol IC50 assay was developed in a prior report. Briefly, 60 nM of the preannealed primer-template containing a 5′ Cy5 fluorophore-conjugated template strand (RP486-Cy5), a downstream complementary oligo conjugated with a 3′ Iowa BlackReg Dark quencher (RP343BHQRQ) and a primer strand (RP469D) was mixed with 50 μM 2’-deoxyribonucleoside triphosphates (dNTPs), 0.1 mg/mL bovine serum albumin (BSA), 0.01% NP-40, 10% glycerol, 1 mM dithiothreitol (DTT), 10 mM MgCl2, 25 mM TrisHCl pH 7.8 in the presence of 2.5% DMSO with or without various concentrations (7-point dilution series) of Polθ-pol small-molecule inhibitors at 37 °C in a volume of 40 μL. The reactions were initiated by the addition of 5 nM of purified recombinant human Polθ-pol (comprising amino acid residues 1792–2590). The reactions were terminated by the addition of 20 mM EDTA after 18 min, and the Cy5 fluorescence intensity was measured using a CLARIOstar (BMG Labtech) plate reader. Reactions were performed in triplicate and the % inhibition at each concentration of the respective compound was based on the mean.

BRCA2^-/- HCT116 = assay: Clonogenic (colony) survival assay; assay type: cell-based, human; settings: for IC50: Homo sapiens; for fold lower IC50 in BRCA2–/– HCT116 cells compared to RTx-161 / selectivity against BRCA2–/– versus BRCA+/+ HCT116 cells: clonogenic survival
Protocol: (§1) Colony survival assays were performed on 24-well plates. 800 cells/well of HCT, DLD1- BRCA2 −/–, PALB2 −/–, MEF BRCA1 […], PEO1, SNU-601, SKOV3- BRCA2 −/–, OVCAR8 cells and 200 cells/well of HCT, DLD1, MEF, SKOV3 wildtype cells were plated. For MDA pair, 500 cells/well of MDA436 and 100 cells of MDA231 were plated. Cells were treated with the compound 24 h after plating and the medium was replaced every two or 3 days until the colonies were ready for staining. Colonies were typically ready for staining in 10–12 days. For staining: Medium was removed from plates, and cells were rinsed with PBS. Fixation was carried out with Water:Ethanol:Acetic acid (5:4:1) for 30 min followed by staining of colonies with 0.5% crystal violet in Water:Ethanol (3:2) for 2 h at room temperature. The plates were rinsed with water and left for drying overnight at room temperature. Colonies were then counted manually, and response curves are shown as mean colony formation ± SEM. IC50 was calculated with GraphPad Prism using nonlinear regression analysis, inhibitor vs response (variable slope) equation.

BRCA2^+/+ HCT116 = assay: Clonogenic (colony) survival assay; assay type: cell-based; settings: Homo sapiens
Protocol: as §1

[3] = Dulbecco's PBS, pH 7.4, read-out: T1/2 PBS
[4] = simulated gastric fluid (SGF) with pepsin, pH 1.2, read-out: T1/2 simulated gastric fluid
[5] = simulated intestinal fluid (SIF) with pancreatin, pH 6.8, read-out: T1/2 simulated intestinal fluid
[6] = HCT-116, read-out: IC50 BRCA2^-/- HCT116 (μM)
[7] = HCT-116, read-out: IC50 BRCA2^+/+ HCT116 (μM)

SMILES | half-life at 5 μM [1, 3] [h] | half-life at 5 μM [1, 4] [h] | half-life at 5 μM [1, 5] [h] | IC50 [2] [nM] | IC50 (BRCA2^-/- HCT116; [6]) [µM] | fold lower IC50 in BRCA2–/– HCT116 cells compared to RTx-161 (BRCA2^-/- HCT116) [fold] | selectivity against BRCA2–/– versus BRCA+/+ HCT116 cells (BRCA2^-/- HCT116) [fold] | IC50 (BRCA2^+/+ HCT116; [7]) [µM] | stability in simulated intestinal and gastric fluids, plasma and PBS buffer [1] | IC50 (BRCA2^-/- HCT116; HCT-116, read-out: IC50(nM) HCT116 BRCA2 –/–) [µM] | IC50 (BRCA2^+/+ HCT116; HCT-116, read-out: IC50(nM) HCT116 BRCA2 +/+) [µM]
[2H]C([2H])([2H])N(C(=O)Oc1c(N2CCN(CC(O)CNC)C2=O)cc(C(F)(F)F)cc1C(F)(F)F)c1ccc(F)cc1 (stereo not shown) [RTx-283, 2-(3-(2-Hydroxy-3-(methylamino)propyl)-2-oxoimidazolidin-1-yl)-4,6-bis(trifluoromethyl)phenyl (4-fluorophenyl)(methyl-d3)carbamate] | > 3 | > 3 | > 3 | 6.1 | 0.03 | > 10 | > 100 | 16.3 |  |  | 
[2H]C([2H])([2H])N(C(=O)Oc1c(N2CCN(CC(O)CN(C)C)C2=O)cc(C(F)(F)F)cc1C(F)(F)F)c1ccc(F)cc1 (stereo not shown) [RTx-284, 2-{3-[3-(Dimethylamino)-2-hydroxypropyl]-2-oxoimidazolidin-1-yl}-4,6-bis(trifluoromethyl)phenyl N-(4-fluorophenyl)-N-(methyl-d3)-carbamate] | > 3 | > 3 | > 3 | 5.5 | 0.11 | > 10 | > 100 | > 12 |  |  | 
[2H]C([2H])([2H])N(C(=O)Oc1c(N2CCN(C[C@H](O)CN(C)C)C2=O)cc(C(F)(F)F)cc1C(F)(F)F)c1ccc(F)cc1 [RTx-303] |  |  |  | 5.1 |  |  |  |  | high stability | 0.0812 | > 1.28
[2H]C([2H])([2H])N(C(=O)Oc1c(N2CCN(C[C@H](O)CNC)C2=O)cc(C(F)(F)F)cc1C(F)(F)F)c1ccc(F)cc1 [RTx-315] |  |  |  | 13.6 |  |  |  |  | high stability |  | 
